From ChEMBL document CHEMBL3507680, “University of Dundee, Gates Library screen for HepG2 cell viability”

Assay: Human HepG2 cell viability assay in 384 well format
Format: toxicity, cell-based
Design: dose 125 nL, time 70.5 hour; concentration not given beside the values
Conditions: HepG2 cells, read-out: Inhibition

## CCc1n[nH]c(C2CN(C(=O)c3ccc4c(c3)COC4)CCO2)n1 (stereo unspecified)
  cytotoxicity at 70.5 h: 18%

## CN(CCc1ccncc1)CC1CCCN1c1cccnn1 (stereo unspecified)
  cytotoxicity at 70.5 h: 25.1%

## CN(Cc1ccccn1)CC1CCCN1c1cccnn1 (stereo unspecified)
  cytotoxicity at 70.5 h: -5.71%

## COc1cccc(COCC(=O)N2CCCC2Cn2cccn2)c1 (stereo unspecified)
  cytotoxicity at 70.5 h: -11.8%

## Cc1cnn(CC2CCCN2C(=O)c2cn(C)c3ccccc23)c1 (stereo unspecified)
  cytotoxicity at 70.5 h: -9.04%

## CN(Cc1cccc(C(N)=O)c1)CC1CCCN1c1cccnn1 (stereo unspecified)
  cytotoxicity at 70.5 h: -10.2%

## CC(Cn1cccn1)NC(=O)NCc1cccnc1 (stereo unspecified)
  cytotoxicity at 70.5 h: -9.07%

## Cc1ccc(C(=O)NC2CCN(C(=O)Nc3ccccn3)CC2)s1
  cytotoxicity at 70.5 h: 11.7%

## Cc1nc(CN2CCOC(Cn3cccn3)C2)nc2ccccc12 (stereo unspecified)
  cytotoxicity at 70.5 h: -12.1%

## COc1ccc(C(=O)N(C)Cc2nnc3ccccn23)cc1
  cytotoxicity at 70.5 h: 10.4%

## COc1cc(OC)cc(C(=O)N(C)Cc2nnc3ccccn23)c1
  cytotoxicity at 70.5 h: -1.71%

## Cc1cnn(CC2CN(Cc3nc4ccccc4n3C)CCO2)c1 (stereo unspecified)
  cytotoxicity at 70.5 h: 9.31%

## CCN1CCN(C2CCN(Cc3nnc(C(C)C)o3)CC2)C1=O
  cytotoxicity at 70.5 h: -7.93%

## O=C(c1nccc2ccccc12)N1CCCCC1Cn1cccn1 (stereo unspecified)
  cytotoxicity at 70.5 h: -5.86%

## COc1ccc(CC(=O)N2CCCCC2Cn2cccn2)cc1 (stereo unspecified)
  cytotoxicity at 70.5 h: -3.73%

## CNC(=O)c1ccc(C(=O)N2CCC(Nc3cccnn3)CC2)cn1
  cytotoxicity at 70.5 h: -4.73%

## CC(=O)Nc1nc(CN2CCOC(Cn3nc(C)cc3C)C2)cs1 (stereo unspecified)
  cytotoxicity at 70.5 h: 10.6%

## Cc1cnn(CCNCC(=O)NCC2(c3ccccc3)CC2)c1
  cytotoxicity at 70.5 h: 31.1%

## CCc1nc(C2CCCN(C(=O)c3ccc(Cl)cc3)C2)no1 (stereo unspecified)
  cytotoxicity at 70.5 h: 5.79%

## O=C(NCCCn1ccnc1)NCC(c1ccco1)N1CCCCC1 (stereo unspecified)
  cytotoxicity at 70.5 h: 4.46%

## Cc1cc(C)n(CC2CCCN2C(=O)c2ccnc(N(C)C)c2)n1 (stereo unspecified)
  cytotoxicity at 70.5 h: 10.6%

## O=C(c1cc(F)ccc1F)C1CCN(C(=O)c2ccco2)CC1
  cytotoxicity at 70.5 h: -3.7%

## CC(C)c1nc(C2CCCN(C(=O)c3ccc4[nH]nnc4c3)C2)no1 (stereo unspecified)
  cytotoxicity at 70.5 h: -4%

## c1ccc(CCCN2CCOC(Cn3cccn3)C2)cc1 (stereo unspecified)
  cytotoxicity at 70.5 h: -6.46%

## O=C(NCCCNc1ccc(C(F)(F)F)cn1)c1ccc(F)cc1Br
  cytotoxicity at 70.5 h: -6.12%

## CN1CC(C(=O)NCc2cccnc2-n2cccn2)CC1=O (stereo unspecified)
  cytotoxicity at 70.5 h: -6.03%

## CCOc1ccc(OCC(O)CN2CCN(S(C)(=O)=O)CC2)cc1 (stereo unspecified)
  cytotoxicity at 70.5 h: 0.695%

## c1ccc2oc(CN3CCOC(Cn4cccn4)C3)nc2c1 (stereo unspecified)
  cytotoxicity at 70.5 h: -0.847%

## CCc1nc(C2CCCN(C(=O)c3cccc(C(N)=O)c3)C2)no1 (stereo unspecified)
  cytotoxicity at 70.5 h: 1.02%

## Cc1ccc(CNC(=O)Cc2c(C)nc3c(c2C)c(=O)[nH]n3C)cc1
  cytotoxicity at 70.5 h: 4.93%

## O=C(NCCc1ccn(-c2ccccc2)n1)N1CCCC(CO)C1 (stereo unspecified)
  cytotoxicity at 70.5 h: 1.65%

## O=C(NCCc1ccn(-c2ccccc2)n1)N1CCSCC1
  cytotoxicity at 70.5 h: 22.7%

## Cc1cnn(CC2CCCN2C(=O)c2csc(-c3nnc[nH]3)n2)c1 (stereo unspecified)
  cytotoxicity at 70.5 h: -5%

## CN(C)c1cc(C(=O)N2CCCCC2Cn2cccn2)ccn1 (stereo unspecified)
  cytotoxicity at 70.5 h: -1.9%

## CC(=O)Nc1nc(C(=O)N2CCCCC2Cn2cc(C)cn2)cs1 (stereo unspecified)
  cytotoxicity at 70.5 h: 5.83%

## Cc1cnn(CC2CCCCN2C(=O)c2ccc3c(c2)COC3)c1 (stereo unspecified)
  cytotoxicity at 70.5 h: 4.39%

## CCc1ccc(OCC(O)CN2CCN(CC)CC2)cc1 (stereo unspecified)
  cytotoxicity at 70.5 h: 20.5%

## CCN(Cc1ccc2c(c1)OCO2)Cc1nc2c(cnn2C)c(=O)[nH]1
  cytotoxicity at 70.5 h: 7.27%

## c1cnnc(N2CCCC2CNCc2noc(C3CC3)n2)c1 (stereo unspecified)
  cytotoxicity at 70.5 h: 27.1%

## CCc1ccsc1C(=O)N1CCCN(Cc2cscn2)CC1
  cytotoxicity at 70.5 h: 3.8%

## Cc1cnn(CC2CN(Cc3nc4ccccc4nc3C)CCO2)c1 (stereo unspecified)
  cytotoxicity at 70.5 h: -0.573%

## Cc1ccc(C(=O)N2CCN(C(=O)Nc3ccccn3)CC2)o1
  cytotoxicity at 70.5 h: 29.1%

## CCc1n[nH]c(C2CN(C(=O)c3ccsc3)CCO2)n1 (stereo unspecified)
  cytotoxicity at 70.5 h: -9.96%

## O=C(NCCCn1cncn1)NCC(c1ccccc1)N1CCCC1 (stereo unspecified)
  cytotoxicity at 70.5 h: 0.00173%

## O=C(NCc1cccnc1-n1cccn1)C1CC(=O)N(CC2CC2)C1 (stereo unspecified)
  cytotoxicity at 70.5 h: -13.2%

## Cc1nnc(C2Cc3ccccc3CN2Cc2ncc(C(C)(C)C)o2)o1 (stereo unspecified)
  cytotoxicity at 70.5 h: 34.5%
